In patent publication US8735421B2, “Imidazoquinolinyl sulfonamides” (3M Innovative Properties Company, priority 2003, dated 2014):

| melting point | Compound |
| --- | --- |
| 197 to 200 °C | CCOCc1nc2c(N)nc3ccccc3c2n1CCCCS(=O)(=O)Nc1ccccn1 [Example 40, 4-[4-Amino-2-(ethoxymethyl)-1H-imidazo[4,5-c]quinolin-1-yl]-N-(pyridin-2-yl)butane-1-sulfonamide] |
| 203 to 205 °C | CCOCc1nc2c(N)nc3ccccc3c2n1CC(C)(C)CS(=O)(=O)NCc1ccc(OC)cc1 [Example 41, 3-[4-Amino-2-(ethoxymethyl)-1H-imidazo[4,5-c]quinolin-1-yl]-N-(4-methoxybenzyl)-2,2-dimethylpropane-1-sulfonamide] |
| 229 to 231 °C | CCOCc1nc2c(N)nc3ccccc3c2n1CC(C)(C)CS(N)(=O)=O [Example 42, 3-[4-Amino-2-(ethoxymethyl)-1H-imidazo[4,5-c]quinolin-1-yl]-2,2-dimethylpropane-1-sulfonamide] |
| 242 to 243 °C (dec.) | Cc1nc2c(N)nc3c(c2n1CC(C)(C)CS(N)(=O)=O)CCCC3 [Example 43, 3-(4-Amino-2-methyl-6,7,8,9-tetrahydro-1H-imidazo[4,5-c]quinolin-1-yl)-2,2-dimethylpropane-1-sulfonamide] |
